Publication PMC9143880, “Improving Antimicrobial Activity and Physico-Chemical Properties by Isosteric Replacement of 2-Aminothiazole with 2-Aminooxazole” (Pharmaceuticals, 2022)
Converted amounts (≈) assume the structure as drawn. Like-named read-outs stand apart in the source and are kept apart here.

Assays:
[1] = system: M. smegmatis DSM 43465 (ATCC 607); test: Antimycobacterial MIC, microdilution broth / resazurin; type: cell-based; conditions: Mycolicibacterium smegmatis, read-out: MIC M. smegmatis
[2] = system: Acinetobacter baumannii DSM 30007 (ATCC 19606); test: Antibacterial microdilution broth (EUCAST); type: cell-based; conditions: Acinetobacter baumannii; 24h incubation; read-out: MIC AB
[3] = system: Pseudomonas aeruginosa CCM 3955 (ATCC 27853); test: Antibacterial microdilution broth (EUCAST); type: cell-based; conditions: Pseudomonas aeruginosa; 72h incubation; read-out: MIC PA
[4] = system: Escherichia coli CCM 3954 (ATCC 25922); test: Antibacterial microdilution broth (EUCAST); type: cell-based; conditions: Escherichia coli; 24h incubation; read-out: MIC EC
[5] = system: Lichtheimia corymbifera CCM 8077; test: Antifungal microdilution broth (EUCAST); conditions: Lichtheimia corymbifera
[6] = system: Candida albicans CCM 8320 (ATCC 24433); test: Antifungal microdilution broth (EUCAST); conditions: Candida albicans; for MIC: 24 h
[7] = system: Candida krusei CCM 8271 (ATCC 6258); test: Antifungal microdilution broth (EUCAST); conditions: Pichia kudriavzevii; for MIC: 24 h
[8] = system: M. aurum DSM 43999 (ATCC 23366); test: Antimycobacterial MIC, microdilution broth / resazurin; type: cell-based; conditions: Mycolicibacterium aurum, read-out: MIC M. aurum
[9] = system: Staphylococcus aureus subsp. aureus CCM 4223 (ATCC 29213); test: Antibacterial microdilution broth (EUCAST); type: cell-based; conditions: Staphylococcus aureus; 24h incubation; read-out: MIC SA
[10] = system: Staphylococcus aureus subsp. aureus (MRSA) CCM 4750 (ATCC 43300); test: Antibacterial microdilution broth (EUCAST); type: cell-based; conditions: Staphylococcus aureus; 24h incubation; read-out: MIC MRSA
[11] = system: Trichophyton interdigitale CCM 8377 (ATCC 9533); test: Antifungal microdilution broth (EUCAST); conditions: Trichophyton interdigitale
[12] = system: Enterococcus faecalis CCM 4224 (ATCC 29212); test: Antibacterial microdilution broth (EUCAST); type: cell-based; conditions: Enterococcus faecalis; 24h incubation; read-out: MIC EF
[13] = system: Aspergillus fumigatus ATCC 204305; test: Antifungal microdilution broth (EUCAST); conditions: Aspergillus fumigatus
[14] = system: Staphylococcus epidermidis CCM 4418 (ATCC 12228); test: Antibacterial microdilution broth (EUCAST); type: cell-based; conditions: Staphylococcus epidermidis; 24h incubation; read-out: MIC SE
[15] = system: Candida parapsilosis CCM 8260 (ATCC 22019); test: Antifungal microdilution broth (EUCAST); conditions: Lodderomyces parapsilosis
HepG2 cells = test: HepG2 cytotoxicity screening (CellTiter 96); type: cell-based, human; conditions: Homo sapiens, HepG2, 24 h, 24 h incubation, CellTiter 96; * above highest tested concentration; ** limited by insolubility in medium
[16] = system: Mycobacterium tuberculosis H37Ra ITM-M006710 (ATCC 9431); test: Antimycobacterial MIC, microdilution broth / Alamar Blue (resazurin); type: cell-based; conditions: Mycobacterium tuberculosis, 120 h, Middlebrook 7H9, resazurin after 120 h; read-out: Mtb H37Ra MIC
[17] = RP-UHPLC lipophilicity parameter log k’w; type: physicochemical; conditions: for log k’w: RP-UHPLC, acetonitrile/water, log k extrapolated to 0% acetonitrile; for logkw: experimental lipophilicity parameter
Text: Lipophilicity and water solubility of the drug candidates are important parameters as they are often directly related to their ADME properties in the organism. Lipophilicity is usually expressed as the logarithm of the partition coefficient in n-octanol/water (log P). Due to its laborious determination, especially in the HTS screening, other experimental methods such as RP-HPLC log k’w or purely computational approaches such as Clog P were proposed and have been established as reasonable estimators of true lipophilicity. To investigate the changes in lipophilicity upon introduction of oxazole in the title compounds, we determined the log k’w of all derivatives and compared respective values among the pairs.
The log k of the synthesized compounds was measured using the same instrument (single measurement per concentration), software, and column as was used in the purity evaluation. Working solutions were diluted as described above for purity determination. The log k parameter was calculated after the UHPLC measurements using isocratic mode with mobile phase acetonitrile (B)/water (A) in a set of concentrations of 40, 45, 50% and 20, 30, 40% B for subtype I and subtype II, respectively.

[18] = system: Candida tropicalis CCM 8264 (ATCC 750); test: Antifungal microdilution broth (EUCAST); conditions: Candida tropicalis; for MIC: 24 h
[19] = system: Aspergillus flavus CCM 8363; test: Antifungal microdilution broth (EUCAST); conditions: Aspergillus flavus
[20] = system: M. kansasii DSM 44162 (ATCC 12478); test: Antimycobacterial MIC, microdilution broth / resazurin; type: cell-based; conditions: Mycobacterium kansasii; resazurin after 96 h; read-out: MIC M. kansasii
[21] = system: M. avium DSM 44156 (ATCC 25291); test: as above; type: cell-based, Mycobacterium avium; conditions: Mycobacterium avium, read-out: MIC M. avium
[22] = CCM8077, 24 h, read-out: MIC LC
[23] = ATCC204305, 24 h, read-out: MIC AF
[24] = CCM8363, 24 h, read-out: MIC AFla
[25] = read-out: MIC (visual detection)

Structure (SMILES)	MIC ([1]; resazurin after 48 h) [µg/mL]	melting point [°C]	MIC [2] [µM]	MIC [3] [µM]	MIC [4] [µM]	MIC [5, 22] [µM]	MIC ([6]; read-out: MIC CA) [µM]	MIC ([7]; read-out: MIC CK) [µM]	MIC [9] [µM]	MIC [10] [µM]	MIC ([11]; 72 h, read-out: MIC TI) [µM]	MIC [12] [µM]	MIC [13, 23] [µM]	MIC [14] [µM]	MIC ([15]; 24 h, read-out: MIC CP) [µM]	MIC [16] [µg/mL]	log k’w [17]	logkw [17]	MIC ([18]; read-out: MIC CT) [µM]	MIC [19, 24] [µM]	other results
O=C(Nc1ncco1)c1ccncc1 [Compound 3b]	62.5 (≈ 330 µM)	175 to 177	> 500	> 500	> 500	500	500	500	250 (≈ 47.3 µg/mL)	500 (≈ 94.6 µg/mL)	500	> 500	> 500	500 (≈ 94.6 µg/mL)	> 500	15.6 (≈ 82.6 µM)	0.396	0.3955	> 500	> 500	MIC ([8]; 72 h): 15.6 µg/mL (≈ 82.6 µM); IC50 (HepG2 cells): > 1000 µM
C[C@@H]1[C@H](O)[C@@H](C)/C=C/C=C/C=C/C=C/C=C/C=C/C=C/[C@H](O[C@@H]2O[C@H](C)[C@@H](O)[C@H](N)[C@@H]2O)C[C@@H]2O[C@](O)(C[C@@H](O)C[C@@H](O)[C@H](O)CC[C@@H](O)C[C@@H](O)CC(=O)O[C@H]1C)C[C@H](O)[C@H]2C(=O)O [amphotericin B, reference compound]																					IC90 ([5]; CCM8077, 48 h, read-out: IC90 (spectrophotometric detection)): 1 µg/mL (≈ 1.08 µM); MIC ([5]; CCM8077, 48 h, read-out: MIC (visual detection)): 1 µg/mL; MIC [6, 25]: 1 µg/mL; IC90 ([6]; ATCC24433|CCM8320, 24 h, read-out: IC90 (spectrophotometric detection)): 1 µg/mL (≈ 1.08 µM); MIC [7, 25]: 1 µg/mL; IC90 ([7]; ATCC6258|CCM8271, 24 h, read-out: IC90 (spectrophotometric detection)): 1 µg/mL (≈ 1.08 µM); IC90 ([11]; ATCC9533|CCM8377, 48 h, read-out: IC90 (spectrophotometric detection)): 1 µg/mL (≈ 1.08 µM); MIC ([11]; ATCC9533|CCM8377, 48 h, read-out: MIC (visual detection)): 1 µg/mL; IC90 ([13]; ATCC204305, 48 h, read-out: IC90 (spectrophotometric detection)): 4 µg/mL (≈ 4.33 µM); MIC ([13]; ATCC204305, 48 h, read-out: MIC (visual detection)): 4 µg/mL; IC90 ([15]; ATCC22019|CCM8260, 24 h, read-out: IC90 (spectrophotometric detection)): 0.5 µg/mL (≈ 0.541 µM); MIC ([15]; ATCC22019|CCM8260, 24 h, read-out: MIC (visual detection)): 0.5 µg/mL; MIC [18, 25]: 1 µg/mL; IC90 ([18]; ATCC750|CCM8264, 24 h, read-out: IC90 (spectrophotometric detection)): 1 µg/mL (≈ 1.08 µM); IC90 ([19]; CCM8363, 48 h, read-out: IC90 (spectrophotometric detection)): 4 µg/mL (≈ 4.33 µM); MIC ([19]; CCM8363, 48 h, read-out: MIC (visual detection)): 4 µg/mL
Cc1cc(C(=O)Nc2nc(-c3ccccc3)cs2)cc(Cl)n1 [Compound 16a]		92 to 96	> 500	> 500	> 500	> 125	> 125	> 125	> 500	> 500	> 125	> 500	> 125	> 500	> 125	7.81 (≈ 23.7 µM)	3.314	3.314	> 125	> 125	MIC ([1]; 48 h): 7.81 µg/mL (≈ 23.7 µM); MIC ([8]; resazurin after 72 h): 15.6 µg/mL (≈ 47.4 µM); MIC [20]: 3.91 µg/mL (≈ 11.9 µM); MIC ([21]; 96 h): 7.81 µg/mL (≈ 23.7 µM)
O=C(Nc1nccs1)c1cnccn1 [Compound 8a]	≥ 500		> 500	> 500	> 500	> 500	> 500	> 500	> 500	> 500	> 500	> 500	> 500	500 (≈ 103 µg/mL)	> 500	62.5 (≈ 303 µM)	1.222	1.222	> 500	> 500	MIC ([8]; resazurin after 72 h): 125 µg/mL (≈ 606 µM); MIC [20]: 31.2 µg/mL (≈ 152 µM); MIC ([21]; resazurin after 96 h): 250 µg/mL (≈ 1210 µM)
